Among the data in patent publication US20260184697A1, “EZH1/2 INHIBITOR, PREPARATION THEREOF, AND USE THEREOF IN ANTI-TUMOR THERAPY” (JIANGSU TASLY DIYI PHARMACEUTICAL CO., LTD., priority 2022, published 2026) are IC50 values, retold here.

Each structure is given as a SMILES string. Like-named read-outs stand apart in the source and are kept apart here. Bounds are passed on as bounds.

For test [1], the system named is H3K27Me3 methylation in Karpas-422 cells. Nature of the test: H3K27Me3 cell method, inhibition of H3K27Me3 methylation (Test Example 2). Conditions: Homo sapiens, KARPAS-422, 72 h. The test is classed as cell-based, human. In short, it runs like this: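 Karpas-422 cells, 15,000/well in 80% RPMI 1640 + 20% FBS, treated with compound dilutions (final DMSO 0.2%) for 3 days at 37 °C, 5% CO2. Cellular H3K27Me3 read by HTRF; viability in parallel by CCK8 at OD405. IC50 from log(inhibitor)-response variable-slope fit of inhibition rate.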

For a further test, the target named is T1, EZH2/SUZ/EED (Homo sapiens, UniProt O75530+Q15022+Q15910).
T1 construct: purchased BPS 51003
In words: Inhibitory effect on EZH2 by the MTase-Glo method (Test Example 1). In kind it is biochemical. To be noted: EZH2/SUZ/EED 6.25 nM, H3 peptide 10 μM, SAM 3 μM, 30° C. 3 h, read-out: Test Example 1 WT EZH2 IC50. Summed up: (§1)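 EZH2/SUZ/EED (6.25 nM) or EZH1/SUZ/EED (25 nM) pre-incubated 15 min with compound in pH 7.6 Bicine buffer, 0.5% DMSO. Biotinylated H3(21-44) peptide 10 μM plus SAM 3 μM reacted 3 h at 30 °C; MTase-Glo luminescence normalized to controls, IC50 from variable-slope fit.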

A further test addresses T2, EZH1/SUZ/EED (Homo sapiens, UniProt O75530+Q15022+Q92800).
T2 construct: purchased BPS 51006
Nature of the test: Inhibitory effect on EZH1 by the MTase-Glo method (Test Example 1). In kind it is biochemical. To be noted: EZH1/SUZ/EED 25 nM, H3 peptide 10 μM, SAM 3 μM, 30° C. 3 h, read-out: Test Example 1 WT EZH1 IC50. Summed up:
as §1

A further test concerns Karpas-422 cells. In words: Anti-proliferation by Cell Titer-Glo method (Test Example 3). To be noted: Homo sapiens. In kind it is cell-based. The method, then: Karpas-422 (Nanjing Kebai, CBP60629) cells were seeded in a 96-well plate (Corning, 3894) at 1,000 cells per well in growth medium (80% 1640 (Hyclone, SH30809.01)+20% FBS (Corning, 35-081-CV)), in a total of 100 μL, and then was added with 25 μL of 5-fold different concentrations of compounds diluted in growth medium. The cell growth group without compound addition was used as a positive control (maximum signal control), and the medium was used as a negative control (minimum signal control), while ensuring that the final contration of DMSO in each reaction well was 0.2%. Then the 96-well cell plate was placed in a cell culture incubator (37° C., 5% CO2) and incubated for 3 days. On the fourth day, the cell culture plate was taken out of the incubator, using a row gun to gently blow the cells up and down to mix, removing 62.5 μL of the cell suspension, adding 50 μL of growth medium and 12.5 μL of compounds of 5 times different concentrations, and then putting them in the cell incubator to incubate for 4 days. On the eighth day, the same method was used as the fourth day to treat the cells, then incubating in the cell culture incubator for 3 days. On the eleventh day, the Cell-Titer Glo (Promega, G7573) was used to detect cell viability, and a microplate reader was used to detect the signal value of luminescence.
The inhibition rate of different concentrations of compounds on cells was calculated as inhibition rate=[1−(compound signal value−negative control signal value)/(positive control signal value-negative control signal value)][…]. The IC50 of the compound on cell activity inhibition was calculated by GraphPad Prism 6 with log(inhibitor) vs. response-Variable slope model fitting. The fitting equation is: Y=Bottom+(Top−Bottom)/(1+10^((Log IC50−X)*Hill Slope)), wherein Y represents the inhibition rate, and X represents the known concentration of the compound after Log.
In general terms: In ATP-based viability assays light output follows the ATP content of the culture.

Where [2] appears, read: Karpas-422 cells, 3 days incubation, HTRF signal, read-out: Test Example 2 H3K27Me3 inhibition (Karpas-422) IC50.
The mark [3] stands for this setting: Karpas-422 cells, Cell-Titer Glo on the eleventh day, read-out: Test Example 3 Karpas-422 cell anti-proliferation IC50.
Where [4] appears, read: read-out: Test Example 2 H3K27Me3 inhibition (Karpas-422) IC50(nM).
[5] abbreviates: KARPAS-422, read-out: Test Example 3 Karpas-422 cell anti-proliferation IC50(nM).

T2 sequence (Q92800 2-747 limits assumed): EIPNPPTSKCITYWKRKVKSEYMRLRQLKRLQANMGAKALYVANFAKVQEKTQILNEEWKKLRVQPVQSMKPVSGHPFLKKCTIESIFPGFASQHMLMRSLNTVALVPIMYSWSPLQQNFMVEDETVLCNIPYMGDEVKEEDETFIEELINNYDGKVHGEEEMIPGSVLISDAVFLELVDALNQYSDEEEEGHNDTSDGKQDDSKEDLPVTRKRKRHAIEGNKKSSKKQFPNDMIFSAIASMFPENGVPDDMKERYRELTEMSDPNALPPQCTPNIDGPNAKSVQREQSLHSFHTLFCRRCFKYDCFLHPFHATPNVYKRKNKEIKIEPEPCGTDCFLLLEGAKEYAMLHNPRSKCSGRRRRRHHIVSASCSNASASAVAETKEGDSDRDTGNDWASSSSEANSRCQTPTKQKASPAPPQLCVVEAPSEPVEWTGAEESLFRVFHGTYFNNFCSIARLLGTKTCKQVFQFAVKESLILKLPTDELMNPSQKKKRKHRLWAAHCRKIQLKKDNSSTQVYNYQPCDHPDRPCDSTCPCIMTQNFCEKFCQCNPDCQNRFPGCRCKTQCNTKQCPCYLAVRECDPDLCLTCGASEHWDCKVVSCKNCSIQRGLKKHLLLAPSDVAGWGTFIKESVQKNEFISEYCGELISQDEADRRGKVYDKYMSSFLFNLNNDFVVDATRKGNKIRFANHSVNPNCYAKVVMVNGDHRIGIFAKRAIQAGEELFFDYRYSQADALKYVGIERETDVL
T2 sequence (Q15022 2-739 partner limits assumed): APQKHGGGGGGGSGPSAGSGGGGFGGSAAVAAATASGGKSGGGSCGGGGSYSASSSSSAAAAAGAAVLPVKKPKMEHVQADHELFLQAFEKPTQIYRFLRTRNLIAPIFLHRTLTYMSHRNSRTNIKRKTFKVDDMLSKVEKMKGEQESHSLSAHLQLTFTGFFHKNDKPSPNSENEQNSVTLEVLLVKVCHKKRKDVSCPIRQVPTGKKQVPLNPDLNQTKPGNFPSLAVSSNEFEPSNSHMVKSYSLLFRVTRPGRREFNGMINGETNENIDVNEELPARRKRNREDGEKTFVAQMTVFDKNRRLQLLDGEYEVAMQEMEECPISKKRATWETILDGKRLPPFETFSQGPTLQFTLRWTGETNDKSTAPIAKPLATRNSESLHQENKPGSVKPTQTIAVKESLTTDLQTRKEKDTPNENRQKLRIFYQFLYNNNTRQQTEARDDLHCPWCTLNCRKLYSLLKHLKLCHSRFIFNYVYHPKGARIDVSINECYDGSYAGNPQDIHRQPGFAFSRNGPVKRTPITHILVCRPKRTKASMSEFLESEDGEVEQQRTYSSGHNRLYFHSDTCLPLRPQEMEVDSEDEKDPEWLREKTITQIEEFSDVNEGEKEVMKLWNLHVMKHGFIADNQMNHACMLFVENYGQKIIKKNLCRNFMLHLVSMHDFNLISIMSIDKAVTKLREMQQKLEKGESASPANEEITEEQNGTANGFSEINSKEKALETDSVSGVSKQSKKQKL
T2 sequence (O75530 2-441 partner limits assumed): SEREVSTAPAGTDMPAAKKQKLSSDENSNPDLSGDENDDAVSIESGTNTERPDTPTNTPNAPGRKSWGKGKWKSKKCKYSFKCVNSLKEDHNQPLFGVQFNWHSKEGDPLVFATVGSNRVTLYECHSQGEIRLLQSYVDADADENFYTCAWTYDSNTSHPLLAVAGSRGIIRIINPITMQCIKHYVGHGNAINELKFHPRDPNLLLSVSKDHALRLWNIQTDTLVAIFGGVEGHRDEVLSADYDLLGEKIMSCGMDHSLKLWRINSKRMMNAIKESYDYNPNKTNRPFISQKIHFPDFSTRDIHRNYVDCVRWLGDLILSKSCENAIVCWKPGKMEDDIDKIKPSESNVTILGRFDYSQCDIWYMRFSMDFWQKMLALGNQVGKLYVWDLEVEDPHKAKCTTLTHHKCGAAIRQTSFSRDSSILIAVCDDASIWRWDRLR
T1 sequence (Q15910 2-746 limits assumed): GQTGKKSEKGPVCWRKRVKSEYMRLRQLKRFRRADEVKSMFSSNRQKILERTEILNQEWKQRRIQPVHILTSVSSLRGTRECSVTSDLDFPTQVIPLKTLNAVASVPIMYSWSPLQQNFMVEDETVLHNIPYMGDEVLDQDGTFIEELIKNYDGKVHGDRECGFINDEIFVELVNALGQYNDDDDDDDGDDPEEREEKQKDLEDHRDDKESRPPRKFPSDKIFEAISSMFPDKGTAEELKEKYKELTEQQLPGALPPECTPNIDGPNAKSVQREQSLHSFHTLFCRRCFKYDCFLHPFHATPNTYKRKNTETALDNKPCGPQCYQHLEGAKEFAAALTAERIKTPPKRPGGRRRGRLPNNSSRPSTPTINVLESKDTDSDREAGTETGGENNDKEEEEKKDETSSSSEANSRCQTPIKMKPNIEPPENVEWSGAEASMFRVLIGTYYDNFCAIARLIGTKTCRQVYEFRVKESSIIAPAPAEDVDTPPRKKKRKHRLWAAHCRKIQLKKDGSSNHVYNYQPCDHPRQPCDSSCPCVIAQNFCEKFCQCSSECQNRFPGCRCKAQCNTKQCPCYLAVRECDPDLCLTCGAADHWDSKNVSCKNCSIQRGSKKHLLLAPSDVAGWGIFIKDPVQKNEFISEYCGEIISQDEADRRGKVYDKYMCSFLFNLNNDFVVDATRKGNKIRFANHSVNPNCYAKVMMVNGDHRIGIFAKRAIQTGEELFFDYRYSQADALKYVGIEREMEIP
T1 sequence (Q15022 2-739 partner limits assumed): as the sequence (Q15022 2-739 partner limits assumed) above
T1 sequence (O75530 2-441 partner limits assumed): as the sequence (O75530 2-441 partner limits assumed) above

Take `Cc1cc(C)c(CNC(=O)c2cc(Cl)c3c(c2C)OC(C2CCC(N(C)C)CC2)CO3)c(=O)[nH]1` (centres unmarked) [Compound 2]: the IC50 in test [1] (setting [2]) stood at 31.2 nM; at EZH2/SUZ/EED, 3.9 nM; on EZH1/SUZ/EED it was 88.5 nM; in the test with Karpas-422 cells (setting [3]), 42.4 nM.

With `CSc1cc(C)[nH]c(=O)c1CNC(=O)c1cc(Cl)c2c(c1C)OC(C1CCC(N(C)C)CC1)CO2` (centres unmarked) [Compound 3], the IC50 turned out to be 2.1 nM in test [1] (setting [2]), 3.3 nM at EZH2/SUZ/EED, 4.4 nM on EZH1/SUZ/EED and 7.6 nM with Karpas-422 cells (setting [3]).

For `COc1cc(C)[nH]c(=O)c1CNC(=O)c1cc(Cl)c2c(c1C)OC(C1CCC(N(C)C)CC1)CO2` (centres unmarked) [Compound 5], the IC50 worked out at 7.9 nM in test [1] (setting [2]), 2.3 nM on EZH2/SUZ/EED, 26 nM at EZH1/SUZ/EED and 23.2 nM with Karpas-422 cells (setting [3]).

Regarding `CSc1cc(C)[nH]c(=O)c1CNC(=O)c1cc(Cl)c2c(c1C)O[C@@H]([C@H]1CC[C@@H](N(C)C)CC1)CO2` [Compound 6], the IC50 in test [1] (setting [4]) came to 0.59 nM; on EZH2/SUZ/EED it was 2.5 nM; on EZH1/SUZ/EED, 4 nM; with Karpas-422 cells (setting [5]) it was 1.3 nM.

Turning to `COC1CN([C@H]2CC[C@@H]([C@H]3COc4c(Cl)cc(C(=O)NCc5c(SC)cc(C)[nH]c5=O)c(C)c4O3)CC2)C1` [Compound 8], the IC50 in test [1] (setting [2]) stood at 2.4 nM; at EZH2/SUZ/EED it was 5.6 nM; at EZH1/SUZ/EED, 6.2 nM; in the test on Karpas-422 cells (setting [3]), 1.8 nM.

Consider `CSc1cc(C)[nH]c(=O)c1CNC(=O)c1cc(Cl)c2c(c1C)O[C@@H]([C@H]1CC[C@@H](N3CC(OC4CC4)C3)CC1)CO2` [Compound 11], for which the IC50 in test [1] (setting [2]) was 1.7 nM; on EZH2/SUZ/EED, 8.1 nM; on EZH1/SUZ/EED it was 4.8 nM; in the test with Karpas-422 cells (setting [3]) it was 1.5 nM.

`CSc1cc(C)[nH]c(=O)c1CNC(=O)c1cc(Cl)c2c(c1C)O[C@@H]([C@H]1CC[C@@H](N3CC4COCC4C3)CC1)CO2` (some centres unmarked) [Compound 14]: the IC50 in test [1] (setting [2]) stood at 6.8 nM; on EZH2/SUZ/EED, 3.7 nM; at EZH1/SUZ/EED it was 3.7 nM; in the test with Karpas-422 cells (setting [3]), 3.3 nM.

Turning to `CSc1cc(C)[nH]c(=O)c1CNC(=O)c1cc(Cl)c2c(c1C)OC(C1CCN(CC3CC3)CC1)CO2` (centres unmarked) [Compound 16], the IC50 amounted to 85.9 nM in test [1] (setting [2]), 5.2 nM on EZH2/SUZ/EED, 29.6 nM at EZH1/SUZ/EED and 19.8 nM with Karpas-422 cells (setting [3]).

Take `CSc1cc(C)[nH]c(=O)c1CNC(=O)c1cc(Cl)c2c(c1C)O[C@@H]([C@H]1CC[C@@H](N3CCN(C)CC3)CC1)CO2` [Compound 18]: the IC50 in test [1] (setting [2]) turned out to be 22.8 nM; on EZH2/SUZ/EED, 3.5 nM; at EZH1/SUZ/EED, 7.4 nM; with Karpas-422 cells (setting [3]), 17.7 nM.

With `CSc1cc(C)[nH]c(=O)c1CNC(=O)c1cc(Cl)c2c(c1C)O[C@@H]([C@H]1CC[C@H](N3CCN(C)CC3)CC1)CO2` [Compound 19], the IC50 is 284 nM in test [1] (setting [2]), 3.4 nM at EZH2/SUZ/EED, 26.3 nM on EZH1/SUZ/EED and 89.5 nM with Karpas-422 cells (setting [3]).

Take `[2H]C([2H])([2H])OC1CN([C@H]2CC[C@@H]([C@H]3COc4c(Cl)cc(C(=O)NCc5c(SC)cc(C)[nH]c5=O)c(C)c4O3)CC2)C1` [Compound 20]: the IC50 in test [1] (setting [2]) came to 3.2 nM; on EZH2/SUZ/EED it was 3.1 nM; on EZH1/SUZ/EED, 3.3 nM; with Karpas-422 cells (setting [3]), 1.6 nM.

For the compound `CSc1cc(C)[nH]c(=O)c1CNC(=O)c1cc(Cl)c2c(c1C)O[C@@H]([C@H]1CC[C@@H](N3CCC3)CC1)CO2` [Compound 32], the IC50 was 1.7 nM in test [1] (setting [4]), 5.1 nM at EZH2/SUZ/EED, 5.7 nM at EZH1/SUZ/EED and 2 nM in the test with Karpas-422 cells (setting [5]).

Take `Cc1cc(C)c(CNC(=O)c2cc(Cl)c3c(c2C)O[C@@H](C2CCC(N(C)C)CC2)CO3)c(=O)[nH]1` (some centres unmarked) [Compound 53]: the IC50 in test [1] (setting [2]) stood at 5 nM; on EZH2/SUZ/EED it was 3 nM; at EZH1/SUZ/EED, 26.8 nM; in the test with Karpas-422 cells (setting [3]) it was 14.1 nM.

Regarding `Cc1cc(C)c(CNC(=O)c2cc(Cl)c3c(c2C)O[C@H]([C@H]2CC[C@@H](N(C)C)CC2)CO3)c(=O)[nH]1` [Compound 54], the IC50 was above 1000 nM in test [1] (setting [2]), 250 nM on EZH2/SUZ/EED, 400 nM at EZH1/SUZ/EED and above 1000 nM with Karpas-422 cells (setting [3]).
